Earlier results, collected in publication PMC11913096, “MBX 2109, A Once-Weekly Parathyroid Hormone Replacement Therapy Prodrug: Phase 1, First-In-Human, Randomized Trial” (The Journal of Clinical Endocrinology and Metabolism, 2024).
Where no end group is shown, it is not given here.

Legend:
patients with hypoPT = details: once-daily, placebo 5%
Description: (§1) Because PTH deficiency is the etiology for chronic hypoPT, hormone replacement therapy with PTH would be the ideal treatment ([1], [2]). However, the short half-lives (t1/2) of unmodified PTH(1-34) and PTH(1-84) peptides necessitate frequent administration to normalize serum calcium levels ([2]). For example, twice-daily subcutaneous (SC) injection of teriparatide, a recombinant PTH(1-34) analogue with a short half-life (∼1 hour) ([2]), was more efficacious than once-daily administration in normalizing serum calcium and reducing hypercalciuria in patients with hypoPT ([9]). Continuous SC (pump ...

[1] = Description: as §1

Substance	Patients achieving composite primary end point (normalizing serum calcium and eliminating active vitamin D and calcium supplements) (patients with hypoPT)	Half-life [1]
palopegteriparatide (SVSEIQLMHNLGKHLNSMERVEWLRKKLQDVHNF; also: methoxy-PEG carrier prodrug, attachment not given here; UniProt P01270 32-65, looked up, fragment) [prodrug of PTH(1-34) conjugated to a methoxypolyethylene glycol (PEG) carrier]	79%	–
teriparatide	–	~1 h
